From patent US12583938B2, “Protein biomarker and uses thereof” (Daiichi Sankyo Co., Ltd., priority 2013, dated 2026)
Entries after “also recorded” stand apart in the source; their conditions may differ. Like-named read-outs stand apart in the source and are kept apart here.

What was measured:
[1] = test system: HER3 phosphorylation in BT474 cells; assay: in vitro HER3 phosphorylation by Western blotting; assay type: cell-based, human; settings: FIG. 10
Experimental: FIG. 10 depicts Western blots showing that U3-1287 can block […] basal HER3 phosphorylation.
(§1) U3-1287 efficacy was determined in vitro by measuring reduction of phospho-HER3 and phospho-AKT levels.

[2] = test system: Stage IIIb/IV NSCLC; settings: Phase 1b, 150 mg erlotinib daily + 18 mg/kg patritumab every 3 weeks, 7 subjects
Experimental: (§2) In both portions of the study, subjects received 150 mg of erlotinib orally once daily. […] Tumors were to be assessed every 6 weeks (±3 days) up to the first 24 weeks of the study, then every 12 weeks (±7 days) independent of treatment cycle.

[3] = test system: HT-144; assay: human cancer xenograft in mice, tumor growth inhibition; assay type: in vivo; settings: HT-144 xenograft, Melanoma, HRG (WB) −
Experimental: (§3) The HRG biomarker was identified by analysing the anti-tumor activity of the anti-HER3 antibody U3-1287 on various human cancer xenografts in vivo and analysis of the expression of HRG of these cell lines in vitro. Human tumor cell lines of various indications were grown as xenografts in mice and treated with the anti-HER3 antibody U3-1287 for several weeks. Inhibition of tumor growth was analysed by comparing the tumor volumes of control mice and mice treated with U3-1287. Human tumor cell lines were grown in vitro and analysed for HRG protein expression by Western blotting.

[4] = test system: FaDu; assay: as above; assay type: in vivo; settings: Head&Neck, HRG (WB) +
Experimental: as §3

[5] = test system: HT-29; assay: as above; assay type: in vivo; settings: HT-29 xenograft, Colon, HRG (WB) −
Experimental: as §3

[6] = test system: A549; assay: as above; assay type: in vivo; settings: NSCLC, HRG (WB) +
Experimental: as §3

[7] = test system: Calu-3; assay: as above; assay type: in vivo; settings: Calu-3 xenograft, NSCLC, HRG (WB) +
Experimental: as §3

[8] = test system: Sum225; assay: as above; assay type: in vivo; settings: BC FISH + ve, HRG (WB) −
Experimental: as §3

[9] = test system: NCI-H441; assay: as above; assay type: in vivo; settings: NSCLC, HRG (WB) −
Experimental: as §3

[10] = test system: MCF-7; assay: as above; assay type: in vivo; settings: MCF-7 xenograft, BC FISH + ve, HRG (WB) −
Experimental: as §3

[11] = test system: MKN-45; assay: as above; assay type: in vivo; settings: MKN-45 xenograft, Gastric, HRG (WB) −
Experimental: as §3

[12] = test system: HCC 1569; assay: as above; assay type: in vivo; settings: HCC 1569 xenograft, BC FISH + ve, HRG (WB) −
Experimental: as §3

[13] = test system: BT474; assay: as above; assay type: in vivo; settings: BC FISH + ve, HRG (WB) −
Experimental: as §3

[14] = test system: A375; assay: as above; assay type: in vivo; settings: Melanoma, HRG (WB) −
Experimental: as §3

[15] = test system: NC-H1975; assay: as above; assay type: in vivo; settings: NSCLC, HRG (WB) +
Experimental: as §3

[16] = test system: BxPC3; assay: as above; assay type: in vivo; settings: Pancreas, HRG (WB) +
Experimental: as §3

[17] = test system: ZR75-1; assay: as above; assay type: in vivo; settings: ZR75-1 xenograft, BC FISH + ve, HRG (WB) −
Experimental: as §3

[18] = test system: MDA-MB453; assay: as above; assay type: in vivo; settings: BC FISH + ve, HRG (WB) −
Experimental: as §3

[19] = test system: HER3 phosphorylation in CaOV3 cells; assay: in vitro reduction of phospho-HER3 and phospho-AKT levels by Western blotting; assay type: cell-based, human; settings: CaOV3, no basal HER3 activation, stimulated with exogenous heregulin; FIG. 9
Experimental: (§4) FIG. 9 depicts efficacy determined in vitro by measuring reduction of phospho-HER3 and phospho-AKT levels by Western blotting.
as §1

[20] = test system: HER3 phosphorylation in A549 cells; assay: as above; assay type: cell-based, human; settings: A549, endogenously express heregulin; FIG. 9
Experimental: as §4, §1

[21] = monotherapy Phase 1 study of patritumab; assay type: in vivo
Experimental: A higher maintenance dose level of 18 mg/kg was also included to accommodate the possible effect of reduced tumor tissue penetration in the clinical setting relative to animal models.

[22] = test system: Stage IIIb/IV NSCLC; settings: for OS: Subjects (%) with events / OS: Subjects (%) without events (censored) / PFS: Subjects (%) with events / PFS: Subjects (%) without events (censored) / Progression-Free Survival, Time to event, Median / Overall Survival, Time to event, Median: Full Analysis Set; for Progression-Free Survival, Time to event, Median / Overall Survival, Time to event, Median: Kaplan-Meier Estimate; for Overall Survival, Time to event, Median: preliminary; for On-Study Death / Primary Cause of On-Study Death: Adverse Event / Primary Cause of On-Study Death: Disease Progression / Primary Reason for Discontinuing Study Treatment: Adverse Event / Primary Reason for Discontinuing Study Treatment: Death / Primary Reason for Discontinuing Study Treatment: Progressive Disease (Radiographic Progression): Enrolled/Randomized Analysis Set; for HR for PFS (pooled dose vs placebo): soluble HRG high group, + erlotinib
Experimental: as §2
An “HRG high” subject was defined as a subject with observed soluble HRG concentration of higher than 980 pg/mL, the Quartile 3 of the sample set. Soluble HRC concentration was measured by the improved ELISA method disclosed herein.
At the point of primary analysis, the treatment assignment for all subjects was unblinded to designated study personnel for analysis after data were reconciled and cleaned, and a snapshot of the clean database was created. To minimize potential bias, individual treatment assignment was not divulged to subjects or Investigators until study closure.
All efficacy analyses were performed on the full analysis set, which includes all subjects in the randomized analysis set who received at least one dose of randomized study medication. The primary efficacy endpoint was PFS. PFS is defined as the time from the date of randomization to the earlier of the dates of the first objective documentation of radiographic disease progression or death due to any cause. A subject who was alive with no objective documentation of (radiographic) disease progression by the data cut-off date was to be censored at the date of the last evaluable tumor assessment. The key secondary efficacy endpoint, overall survival, was defined as the time from the date of randomization to death due to any cause and was analyzed in the same manner as the primary efficacy endpoint PFS.
Kaplan-Meier curves were generated for PFS and used to calculate medians and 95% CIs for each treatment group.
The stratification factors included histology (Adenocarcinoma vs Non-Adenocarcinoma) and best response to prior therapy (CR/PR/SD vs PD). […] Cox's proportional hazards model with the same stratification factors used for the stratified log-rank test.
Unless otherwise indicated, tog-rank p-values and HRs for PFS and OS were based on the primary analysis adjusted for the stratification factors at randomization as described above.

[23] = 9 mg/kg patritumab + erlotinib (N = 71)
[24] = 9 mg/kg patritumab + erlotinib (N = 72)
[25] = 18 mg/kg patritumab + erlotinib (N = 70)
[26] = 18 mg/kg patritumab + erlotinib (N = 72)

Substance: patritumab
- efficacy on HER3 phosphorylation ([1]; BT474+HRG (exogenously added heregulin)): could be overcome by exogenously added heregulin
- efficacy on basal HER3 phosphorylation ([1]; BT474 basal, do not express heregulin): no efficacy
- ligand-dependent basal HER3 phosphorylation ([1]; Western blots): can block
- AEs grade≥3, number of subjects [2]: 2 subjects
- patritumab-related AE reported in ≥2 subjects [2]: decreased appetite
- relation of grade≥3 AEs to patritumab [2]: none were related to patritumab
- tumor response [2]: No response was recorded
- DLTs ([2]; 18 mg/kg): no DLTs were seen; also recorded: No DLTs were reported
- subjects with serious AEs ([2]; four serious AEs): Three
- In vivo efficacy (SA) [3]: No
- In vivo efficacy (SA) [4]: Yes
- In vivo efficacy (SA) [5]: Yes
- In vivo efficacy (SA) [6]: Yes
- In vivo efficacy (SA) [7]: Yes
- In vivo efficacy (SA) [8]: No
- In vivo efficacy (SA) [9]: No
- In vivo efficacy (SA) [10]: No
- In vivo efficacy (SA) [11]: Yes
- In vivo efficacy (SA) [12]: No
- In vivo efficacy (SA) [13]: No
- In vivo efficacy (SA) [14]: No
- In vivo efficacy (SA) [15]: Yes
- In vivo efficacy (SA) [16]: Yes
- In vivo efficacy (SA) [17]: No
- In vivo efficacy (SA) [18]: No
- HER3 phosphorylation [19]: could be blocked
- Basal HER3 phosphorylation [20]: could be blocked
- maximum tolerated dose ([21]; Phase 1 study): not reached
- dose limiting toxicity ([21]; in vivo): lack of dose limiting toxicity
- OS: Subjects (%) with events [22, 23]: 46 (64.8%) subjects (%)
- OS: Subjects (%) without events (censored) [22, 23]: 25 (35.2%) subjects (%)
- PFS: Subjects (%) with events [22, 23]: 52 (73.2%) subjects (%)
- PFS: Subjects (%) without events (censored) [22, 23]: 19 (26.8%) subjects (%)
- Progression-Free Survival, Time to event, Median [22, 23]: 2.5 months
- Overall Survival, Time to event, Median [22, 23]: 6.3 months
- On-Study Death [22, 24]: 9 subjects
- Primary Cause of On-Study Death: Adverse Event [22, 24]: 4 subjects
- Primary Cause of On-Study Death: Disease Progression [22, 24]: 4 subjects
- Primary Reason for Discontinuing Study Treatment: Adverse Event [22, 24]: 6 subjects
- Primary Reason for Discontinuing Study Treatment: Death [22, 24]: 2 subjects
- Primary Reason for Discontinuing Study Treatment: Progressive Disease (Radiographic Progression) [22, 24]: 45 subjects
- OS: Subjects (%) with events [22, 25]: 54 (77.1%) subjects (%)
- OS: Subjects (%) without events (censored) [22, 25]: 16 (22.9%) subjects (%)
- PFS: Subjects (%) with events [22, 25]: 58 (82.9%) subjects (%)
- PFS: Subjects (%) without events (censored) [22, 25]: 12 (17.1%) subjects (%)
- Progression-Free Survival, Time to event, Median [22, 25]: 1.4 months
- Overall Survival, Time to event, Median [22, 25]: 5.3 months
- On-Study Death [22, 26]: 20 subjects
- Primary Cause of On-Study Death: Adverse Event [22, 26]: 11 subjects
- Primary Cause of On-Study Death: Disease Progression [22, 26]: 8 subjects
- Primary Reason for Discontinuing Study Treatment: Adverse Event [22, 26]: 7 subjects
- Primary Reason for Discontinuing Study Treatment: Death [22, 26]: 11 subjects
- Primary Reason for Discontinuing Study Treatment: Progressive Disease (Radiographic Progression) [22, 26]: 42 subjects
- number of subjects with the response being CR/PR ([22]; high-dose patritumab (18 mg/kg every 3 weeks) + erlotinib): 5 (7.1%) subjects (%)
- number of subjects with the response being CR/PR ([22]; low-dose patritumab (18 mg/kg loading, 9 mg/kg maintenance every 3 weeks) + erlotinib): 9 (12.9%) subjects (%)
- improvement in PFS or OS ([22]; patritumab with erlotinib compared to erlotinib plus placebo, full analysis set (unselected ITT population)): no significant improvement
- HR for PFS (pooled dose vs placebo) ([22]; HRG protein concentration cut-off 0 (median) pg/mL, n 66): 0.58
- HR for PFS (pooled dose vs placebo) ([22]; HRG protein concentration cut-off 1622.5 pg/mL, n 39): 0.31
- HR for PFS (pooled dose vs placebo) ([22]; HRG protein concentration cut-off 2000 pg/mL, n 34): 0.28
- HR for PFS (pooled dose vs placebo) ([22]; HRG protein concentration cut-off 3000 pg/mL, n 30): 0.24
- HR for PFS (pooled dose vs placebo) ([22]; HRG protein concentration cut-off 4000 pg/mL, n 27): 0.26
- HR for PFS (pooled dose vs placebo) ([22]; HRG protein concentration cut-off 5000 pg/mL, n 23): 0.40
- HR for PFS (pooled dose vs placebo) ([22]; HRG protein concentration cut-off 980 (Q3) pg/mL, n 46): 0.41
- treatment difference in PFS and OS ([22]; subjects with tumors expressing low HRG at a protein level (<980 pg/mL), pooled patritumab + erlotinib vs placebo + erlotinib): no clear treatment difference
